These results are taken from patent US20060258639A1, “Therapeutic combinations for the treatment or prevention of psychotic disorders” (Wyeth, priority 2005, published 2006).

Type in all cases: in vivo
For data set [1], the system named is apomorphine-induced climbing. The data set is described as follows: apomorphine-induced climbing in mice, Compound 1 alone or with haloperidol (Experiment 1). Conditions: for ED50: Mus musculus, sc, apomorphine 1 mg/kg s.c., read-out: ED50 for apomorphine block. As to the method: (§1) Using (7-(2,6-dichlorophenyl)-5-fluoro-2,3-dihydrobenzofuran-2-yl)methanamine (Compound 1) as an example, the present Example describes two experiments in which a compound of formula I, was administered in combination with either a typical (exemplified by haloperidol) or atypical (exemplified by clozapine). The combination reduced apomorphine-induced climbing without side effects.
(§2) Mice were acclimated to the climbing cages for at least 1 hour and then dosed with either the vehicle or a dose of haloperidol or clozapine followed by a dose of either vehicle or a dose of Compound 1. Thirty minutes after dosing all mice received 1 mg/kg s.c. apomorphine and returned to the climbing cages. Five minutes after apomorphine the mice were observed and scored for climbing and stereotypy every 5 minutes for the 30 minute test session.

Data set [2] concerns apomorphine-induced climbing. The data set is described as follows: apomorphine-induced climbing in mice, Compound 1 alone or with clozapine (Experiment 2). Conditions: for ED50: Mus musculus, sc, apomorphine 1 mg/kg s.c., read-out: ED50 for apomorphine block. The procedure:
as §1, §2

Data set [3] deals with catalepsy induced by haloperidol. The experiment in a line: catalepsy (bar test), extra-pyramidal side effect liability, Compound 1 with haloperidol. The following applies: Compound 1 3 mg/kg with haloperidol 0.1 & 0.17 mg/kg; 30, 60, 90 and 120 minutes after dosing; mice. As to the method:
Using (7-(2,6-dichlorophenyl)-5-fluoro-2,3-dihydrobenzofuran-2-yl)methanamine (Compound 1) as an example, the present Example describes an experiment in which a compound of formula I was administered in combination with haloperidol to assess extra-pyramidal side effect liability, as represented by cataleptic behavior. [table] Mice were dosed with either the vehicle or a dose of haloperidol followed by a dose of either vehicle or a dose of Compound 1. Thirty, 60, 90 and 120 minutes after dosing, the forelegs are draped over a thin horizontal rod 1.75″ high. The number of seconds up to 60 sec for which the mouse remains on the bar is recorded at each test point and presented as the percent of maximum possible response (60 sec).

Setting [4] is: Compound 1 0.3, 1 & 3 mg/kg co-administered with clozapine 3 & 5.4 mg/kg.

Turning to `NCC1Cc2cc(F)cc(-c3c(Cl)cccc3Cl)c2O1` (centres unmarked) [Compound 1, (7-(2,6-dichlorophenyl)-5-fluoro-2,3-dihydrobenzofuran-2-yl)methanamine], the “block of apomorphine induced climbing versus either compound alone” value is “greater block of apomorphine induced climbing” in data set [1] (Compound 1 0.3, 1 & 3 mg/kg co-administered with haloperidol 0.17 mg/kg) and “greater block of apomorphine induced climbing” in data set [2] (setting [4]). Also, the effect on stereotypy entry in data set [1] (Compound 1 0.3, 1 & 3 mg/kg co-administered with haloperidol 0.17 mg/kg, relative to haloperidol alone) is “no effect on stereotypy”; in data set [2] (setting [4]), “no effect on stereotypy”. The 50% effective dose (ED50) in data set [1] (Experiment 1, Compound 1 alone) came to 1.81 mg/kg; in data set [1] (Experiment 1, co-administered with 0.1 mg/kg of haloperidol), 1.49 mg/kg; in data set [1] (Experiment 1, co-administered with 0.17 mg/kg of haloperidol), 0.534 mg/kg; in data set [2] (Experiment 2, Compound 1 alone), 7.15 mg/kg; in data set [2] (Experiment 2, co-administered with 3 mg/kg of clozapine), 2.48 mg/kg; in data set [2] (Experiment 2, co-administered with 5.4 mg/kg of clozapine), 1.67 mg/kg. In addition, in data set [3], the “catalepsy, percent of maximum possible response (60 sec)” value is “up to 45 % of maximum catalepsy”.
